Results as given in patent US20200179310A1, “COMPOSITIONS COMPRISING SALBUTAMOL SULPHATE” (MEXICHEM AMANCO HOLDING S.A. DE C.V., priority 2013, published 2020).

Test: Solubility of surfactants in liquid propellant (non-volatile residue of saturated supernatant)
Type: physicochemical
Conditions: for NVR result (quantity of dissolved surfactant in the propellant): equilibrated at 20° C., excess surfactant in 200 g liquid propellant
Method: The solubility of various surfactants in R-134a and R-152a was investigated. The solubility was investigated by adding an excess of the surfactant (around 2 grams) to 200 g of the liquid propellant in a pressurised vessel. The vessel was equilibrated at 20° C. for a period of a few hours before decanting a weighed sample of the saturated supernatant liquid propellant through a filter into a clean vessel. The propellant was slowly removed by evaporation and the residue taken up in a small quantity of dichloromethane. The dichloromethane containing the dissolved residue was transferred to a weighed platinum crucible and heated (up to around 100° C.) to remove the solvent. The weighed, solvent-free residue represented the quantity of dissolved surfactant in the propellant.

Substance: Span 80
- NVR result (quantity of dissolved surfactant in the propellant) (Refrigerant 134a (R-134a)): 0.07%
- Observation (Refrigerant 152a (R-152a), 20° C.): Sunk to the bottom
- NVR result (quantity of dissolved surfactant in the propellant) (Refrigerant 152a (R-152a)): 0.22%
- Solubility in R-152a in comparison with R134a (comparison of Table 1 values): significant increases in solubility
